pIC50: −log10 of the molar value. Where “and” joins values, the source holds several entries; their conditions need not be identical. Equal values may be shown once. Read-outs that look alike come from different tables or passages of the source.
Assays:
[1] = target: T1, WT HIV-1 IN (Human immunodeficiency virus type 1 group M subtype B, UniProt P12497); assay: 3'-processing (3'-P) inhibition, recombinant WT IN, gel-based; format: biochemical
T1 construct: we tested the 3′-P activity of WT and SH mutant integrases; made in house
Experimental: (§1) Oligonucleotides harboring a tetrahydrofuran group in place of the nucleobase at position −1 (21Ab-1, […]_GT), at position +1 (21Ab+1, […]_T), position +2 (21Ab+2, […]_) and in place of the last 2 bases (21-2Ab, […]__) were purchased from Eurogentec with PAGE purification. 5’-Labeling was performed using T4 polynucleotide kinase (New England Biolabs, Ipswich, MA, USA) with [γ-^32P]-ATP (Perkin-Elmer Life and Analytical Sciences, Boston, MA, USA) according to the manufacturers’ instructions. Unincorporated isotopes were removed using the Mini Quick spin oligo columns (Roche). Duplex substrates were obtained by annealing ‘top’ (21t or 19t) and ‘bottom’ (21b) oligonucleotides at equimolar ratio.
(§2) WT and mutant INs were purified and their enzymatic activities measured as previously reported ([11]). […] 3′-P and ST reactions were performed at 37°C for 120 min unless otherwise indicated.
(§3) Linear regressions, fit curves, IC50 determinations, standard deviations, standard error of the mean and statistical analyses (P-values) were generated using GraphPad Prism software 5.0c. Pearson and Spearman correlations were determined using the following equation: […]

[2] = target: G140S-Q148H (SH) mutant HIV-1 IN (Human immunodeficiency virus type 1 group M subtype B, UniProt P12497, G1287S/Q1295H); conditions: abasic substrates vs normal substrate
Experimental: as §1, §2, §3

[3] = target: T1, WT HIV-1 IN; conditions: read-out: IC50, inhibition of ST; cited from earlier work
[4] = test system: WT HIV-1 intasome; conditions: cited from earlier work

C[C@@H]1CCO[C@H]2Cn3cc(C(=O)NCc4ccc(F)cc4F)c(=O)c(O)c3C(=O)N12 [DTG, dolutegravir]
Selectivity index (SI) for 3'-P/ST ([1]; IC50 for 3'-P divided by IC50 for ST): 50
pIC50 ([1]; read-out: IC50, inhibition of 3'-P, canonical CAGT substrate, 120 min): 5.79 and 5.80
Increase of IC50 for 3'-P on removing either the -1 or +1 base [2]: about 100 fold
pIC50 [3]: 7.48
Time bound to the WT HIV-1 intasome relative to EVG ([4]; longer than EVG): 26 fold
Time bound to the WT HIV-1 intasome relative to RAL ([4]; longer than RAL): 8 fold

Source: paper PMC5001616 (Nucleic Acids Research, 2016)
